Data set [1] is described as follows: Partition co-efficient, log D of the compound at pH 7.4. Format: physicochemical. Conditions: buffer.
In data set [2] the target is T1, Lysine-specific demethylase 4A (Homo sapiens) (UniProt O75164).
T1 sequence (whole entry): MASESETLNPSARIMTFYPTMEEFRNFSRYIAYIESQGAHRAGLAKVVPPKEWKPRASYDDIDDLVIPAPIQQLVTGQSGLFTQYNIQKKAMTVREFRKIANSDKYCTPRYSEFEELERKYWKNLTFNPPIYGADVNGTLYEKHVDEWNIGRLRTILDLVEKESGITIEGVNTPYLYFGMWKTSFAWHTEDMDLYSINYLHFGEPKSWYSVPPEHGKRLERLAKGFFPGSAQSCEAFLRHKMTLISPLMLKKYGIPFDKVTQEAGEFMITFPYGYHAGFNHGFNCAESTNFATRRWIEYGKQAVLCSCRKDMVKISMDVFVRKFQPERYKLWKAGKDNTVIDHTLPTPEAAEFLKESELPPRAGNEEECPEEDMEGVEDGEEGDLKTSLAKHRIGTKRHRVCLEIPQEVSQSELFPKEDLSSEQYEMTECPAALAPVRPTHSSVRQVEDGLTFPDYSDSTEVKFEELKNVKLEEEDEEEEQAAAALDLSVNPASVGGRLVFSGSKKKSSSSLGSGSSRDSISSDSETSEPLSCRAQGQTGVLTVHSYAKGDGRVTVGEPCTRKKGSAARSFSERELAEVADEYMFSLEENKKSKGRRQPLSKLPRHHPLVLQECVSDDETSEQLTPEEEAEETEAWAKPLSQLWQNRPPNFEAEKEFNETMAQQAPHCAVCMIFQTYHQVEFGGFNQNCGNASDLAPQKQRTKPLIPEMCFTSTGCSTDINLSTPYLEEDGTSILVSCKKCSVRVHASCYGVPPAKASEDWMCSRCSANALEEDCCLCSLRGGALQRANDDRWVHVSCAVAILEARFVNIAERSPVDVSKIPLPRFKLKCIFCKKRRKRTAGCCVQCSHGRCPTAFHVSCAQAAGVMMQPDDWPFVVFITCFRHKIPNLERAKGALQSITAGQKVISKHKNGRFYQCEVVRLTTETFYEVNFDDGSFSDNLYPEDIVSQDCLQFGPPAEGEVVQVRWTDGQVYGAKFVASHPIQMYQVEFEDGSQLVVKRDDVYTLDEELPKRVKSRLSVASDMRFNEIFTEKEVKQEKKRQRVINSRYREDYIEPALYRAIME
As to the kind of experiment: Inhibition of JMJD2A in human HCT116 cells assessed as induction of H3K9me2 hypermethylation at 5 to 10 uM by Western blot analysis. Conditions: HCT-116. Format: cell-based.

Data set [3] deals with T2, Lysine-specific demethylase 4A (Homo sapiens, UniProt O75164).
T2 sequence (O75164 whole entry): T1 sequence (whole entry)
Briefly: Inhibition of recombinant human JMJD2A using biotinylated histone H3 as substrate by AlphaScreen assay.

Data set [4] deals with A549. As to the kind of experiment: Cytotoxicity against human A549 cells assessed as cell viability after 48 hrs by MTT assay. It is filed as functional, cell-based. Conditions: A549, 48 h.
The target of data set [5] is T1, Lysine-specific demethylase 4A (Homo sapiens). As to the kind of experiment: Inhibition of JMJD2A in human HCT116 cells assessed as induction of H3K9me3 hypermethylation at 5 to 10 uM by Western blot analysis. Format: cell-based. Conditions: HCT-116.
Data set [6] can be described thus: Intrinsic aqueous solubility of the compound after 24 hrs by UV spectrophotometric analysis. Format: physicochemical. Conditions: read-out: Intrinsic_solubility.
For data set [7], the system named is MCF7. As to the kind of experiment: Cytotoxicity against human MCF7 cells assessed as cell viability after 48 hrs by MTT assay. It is filed as functional, cell-based. Conditions: MCF7, 48 h. A general note: Tetrazolium assays rely on reduction of a dye to a coloured formazan, in cell work by metabolically active cells.
Data set [8] is described as follows: Permeability of the compound at 10 mM after 4 hrs by PAMPA. Format: physicochemical. The note with it: read-out: permeability. (In PAMPA a lipid-coated filter parts donor from acceptor wells.)
The test system of data set [9] is HCT-116. Briefly: Cytotoxicity against human HCT116 cells assessed as cell viability after 48 hrs by MTT assay. It is filed as functional, cell-based. The note with it: HCT-116, 48 h.
For data set [10], the target named is Egl nine homolog 1 (Homo sapiens) (UniProt Q9GZT9). Briefly: Displacement of F-HIF1alpha from PHD2 (unknown origin) at 50 uM by fluorescence polarization assay relative to control. On the technique in general: Polarisation of emitted light reports the rotation of a fluorescent probe.

Values after ≈ are worked out from the molar mass of the structure shown. Active and inactive are the calls of the source. The rule behind the calls is not given here. Bounds are passed on as bounds.

Egl nine homolog 1 (Homo sapiens), sequence (Q9GZT9 2-426 limits assumed): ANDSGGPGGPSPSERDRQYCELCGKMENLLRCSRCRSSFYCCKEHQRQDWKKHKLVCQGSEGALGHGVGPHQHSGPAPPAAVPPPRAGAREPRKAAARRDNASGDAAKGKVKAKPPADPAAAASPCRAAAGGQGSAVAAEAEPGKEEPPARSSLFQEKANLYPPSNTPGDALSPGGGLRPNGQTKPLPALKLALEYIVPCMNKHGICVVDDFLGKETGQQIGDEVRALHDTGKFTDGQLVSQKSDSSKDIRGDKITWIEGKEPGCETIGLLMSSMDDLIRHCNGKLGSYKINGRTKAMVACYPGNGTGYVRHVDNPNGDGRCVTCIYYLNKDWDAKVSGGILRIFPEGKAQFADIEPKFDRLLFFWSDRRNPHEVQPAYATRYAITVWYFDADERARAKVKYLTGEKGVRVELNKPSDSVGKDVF

What is called logD is lipophilicity at a set pH, counting ionised and neutral species. Read a low logD as lower lipophilicity. As a reminder, the inhibition is how much of the control response was suppressed. What is called IC50 is the concentration that gives 50% inhibition. `O=C(Nc1nc2ccccc2[nH]1)c1ccc2c(C(=O)O)ccc(O)c2n1` displayed a logD in [1] of 2.7. For the same molecule, the inhibition result in data set [2] and in data set [5] was “Active” each time. Further, the IC50 in data set [3] was determined as 19 µM; in data set [4], 21.7 µM; in [7] it was 27.6 µM; in [9], 1.5 µM. Further, in data set [6], the solubility at 24 h was found to be 1300 µM (≈ 453 µg/mL). Also, in [8], the Papp at 4 h, 10000 µM turned out to be 6.7 ×10⁻⁶ cm/s. Besides, in [10], the inhibition was determined as 25%.
In the case of `COc1ccc(NC(=O)c2ccc3c(C(=O)O)ccc(O)c3n2)cc1`, the IC50 in data set [3] is over 100 µM.
For `CCN(CC)C(=O)c1ccc2c(C(=O)O)ccc(O)c2n1`, the logD in [1] was 1.5. Also, the IC50 in [3] is 1.8 µM; in data set [4], over 100 µM; in data set [7] it was over 100 µM; in data set [9] it was 11.1 µM. The solubility at 24 h in data set [6] turned out to be 3600 µM (≈ 1040 µg/mL). Moreover, the Papp at 4 h, 10000 µM in [8] stood at 2.3 ×10⁻⁶ cm/s. This molecule gave an inhibition in data set [10] of 23.9%.
In the case of `O=C(Nc1ccc(F)cc1)c1ccc2c(C(=O)O)ccc(O)c2n1`, in data set [3], the IC50 is over 100 µM.
Consider `O=C(NCCc1c[nH]c2ccccc12)c1ccc2c(C(=O)O)ccc(O)c2n1`, for which, in data set [1], the logD was 2.9. In addition, the IC50 in data set [3] was 24 µM; in data set [4], over 100 µM; in [7], over 100 µM; in [9], 68.3 µM. For the same molecule, the solubility at 24 h in data set [6] is 900 µM (≈ 338 µg/mL). The Papp at 4 h, 10000 µM in data set [8] amounted to 3.6 ×10⁻⁶ cm/s. In addition, in [10], the inhibition stood at 20.6%.
Take `Cc1ccccc1NC(=O)c1ccc2c(C(=O)O)ccc(O)c2n1`: the logD in data set [1] was found to be 3. Also, the IC50 in [3] is over 100 µM; in data set [4], 94.6 µM; in data set [7], over 100 µM; in data set [9], 59.6 µM. For the same molecule, in data set [6], the solubility at 24 h is 700 µM (≈ 226 µg/mL). For the same molecule, the Papp at 4 h, 10000 µM in data set [8] stood at 3.9 ×10⁻⁶ cm/s.
Turning to `CN(C)c1ccc(NC(=O)c2ccc3c(C(=O)O)ccc(O)c3n2)cc1`, in [3], the IC50 is over 100 µM.
On to `CN1CCN(C(=O)c2ccc3c(C(=O)O)ccc(O)c3n2)CC1`, for which the logD in [1] was 0.3. The IC50 in data set [3] is 1.6 µM; in data set [4], over 100 µM; in [7], 95 µM; in data set [9], 94.9 µM. Besides, in data set [6], the solubility at 24 h was 4900 µM (≈ 1550 µg/mL). The Papp at 4 h, 10000 µM in data set [8] was found to be 3.3 ×10⁻⁶ cm/s. For the same molecule, in data set [10], the inhibition was 18.7%.
With `Cc1ccc(NC(=O)c2ccc3c(C(=O)O)ccc(O)c3n2)cc1`, the IC50 in data set [3] was over 100 µM.
On to `CN(C)C(=O)c1ccc2c(C(=O)O)ccc(O)c2n1`, for which the logD in data set [1] came out at 0.4. In addition, the IC50 was 3.7 µM in [3], over 100 µM in data set [4], over 100 µM in [7] and over 100 µM in [9]. Also, the solubility at 24 h in data set [6] was 3800 µM (≈ 989 µg/mL). Moreover, the Papp at 4 h, 10000 µM in [8] was found to be 3 ×10⁻⁶ cm/s. In data set [10], the inhibition was 17.6%.
Take `O=C(Nc1ccc(OC(F)(F)F)cc1)c1ccc2c(C(=O)O)ccc(O)c2n1`: the IC50 in [3] was over 100 µM.
Still for that read-out and setting: the value for `O=C(Nc1ccccc1F)c1ccc2c(C(=O)O)ccc(O)c2n1` was over 100 µM; that for `Cc1cccc(NC(=O)c2ccc3c(C(=O)O)ccc(O)c3n2)c1` was over 100 µM.
For the molecule `O=C(Nc1ccccn1)c1ccc2c(C(=O)O)ccc(O)c2n1`, the logD in data set [1] worked out at 1.2. Further, the IC50 in [3] was determined as 2.8 µM; in data set [4] it was 72.2 µM; in data set [7] it was 43.4 µM; in data set [9] it was 67 µM. Also, the solubility at 24 h in data set [6] was found to be 1200 µM (≈ 371 µg/mL). Also, the Papp at 4 h, 10000 µM in data set [8] is 2.9 ×10⁻⁶ cm/s. In addition, the inhibition in data set [10] amounted to 24%.
`O=C(NCc1ccccc1)c1ccc2c(C(=O)O)ccc(O)c2n1`: in [3], the concentration for half-maximal inhibition (IC50) was over 100 µM.
The molecule `O=C(O)c1ccc(O)c2ncccc12` returned a logD in [1] of -1.9. Also, the IC50 in data set [4] was found to be 48.2 µM; in data set [7] it was 66.4 µM; in [9], 28.1 µM. Further, the solubility at 24 h in [6] was determined as 1200 µM (≈ 227 µg/mL). In data set [8], the Papp at 4 h, 10000 µM turned out to be 2 ×10⁻⁶ cm/s. This molecule returned an inhibition in [10] of 66.3%.
In the case of `O=C(Nc1cccc2ccccc12)c1ccc2c(C(=O)O)ccc(O)c2n1`, in data set [3], the IC50 is over 100 µM.
On to `O=C(Nc1ccccc1)c1ccc2c(C(=O)O)ccc(O)c2n1`, for which the IC50 in [3] is over 100 µM.
In the case of `O=C(NCCCN1CCOCC1)c1ccc2c(C(=O)O)ccc(O)c2n1`, the IC50 in data set [3] is 82 µM; in data set [4] it was over 100 µM; in [7], over 100 µM; in data set [9], over 100 µM.
For the molecule `Cc1ccc(NC(=O)c2ccc3c(C(=O)O)ccc(O)c3n2)nc1`, the IC50 in data set [3] was 6.2 µM; in data set [4], 22.2 µM; in [7], over 100 µM; in data set [9], 72.7 µM. Also, the inhibition in [10] was 23.5%.
Take `COc1cccc(NC(=O)c2ccc3c(C(=O)O)ccc(O)c3n2)c1`: the half-maximal inhibitory concentration (IC50) in [3] is over 100 µM.
For the molecule `O=C(O)c1ccc(O)c2nc(C(=O)N3CCOCC3)ccc12`, the IC50 is 5.1 µM in data set [3], over 100 µM in data set [4], over 100 µM in data set [7] and over 100 µM in [9]. The inhibition in data set [10] turned out to be 9.1%.
As for `O=C(NC1CCCCC1)c1ccc2c(C(=O)O)ccc(O)c2n1`, the IC50 in data set [3] is over 100 µM.

The record behind these values is ChEMBL document CHEMBL3632538, “Novel 5-carboxy-8-HQ based histone demethylase JMJD2A inhibitors: introduction of an additional carboxyl group at the C-2 position of quinoline” (Eur J Med Chem, 2015).
